Data from patent US20180064662A1 (THE GENERAL HOSPITAL CORPORATION, priority 2015, published 2018).

Assays:
[1] = test system: human pancreatic stellate cells (PSCs); test: Human PSCs incubated with metformin in vitro (immunofluorescence, Western blot); format: cell-based
Experimental: Following treatment, cells were collected for RNA and protein extraction in order to perform subsequent analysis of gene expression of cytokines and polarization markers, and for analysis of signaling and metabolic pathways. […] Cells were collected for protein extraction for analysis of the activation of fibrosis-related pathways. […] The cells were fixed with 4% paraformaldehyde and blocked with 5% normal donkey serum for 1 h. They were incubated with the designated primary antibodies overnight at 4° C. then for 2 h with the appropriate secondary antibodies at RT. PBS was used for all washes and the stained samples were mounted with Prolong Gold with DAPI. Images were acquired using a confocal microscope. The antibodies used and image acquisition settings are described below. Both cell types were grown in Dulbecco's modified Eagle's medium (Sigma, St. Louis, Mo.) supplemented with 5% (v/v) heat inactivated fetal bovine serum (FBS; Sigma), 100 units/ml penicillin and streptomycin. Cells were cultured at 37° C. in a humidified atmosphere including 5% CO2.
Each tumor sample was homogenized directly in lysis buffer for protein extraction. 20 ug of denatured protein per sample was loaded on 7%, 10% and 12% SDS-polyacrylamide gels. Antibodies used: phospho-p38 MAPKT^180/Y182 and p38; phospho-JNK (SAPK/JNK)^Thr183/Tyr185 and JNK; phospho-AKT^Ser473 and AKT, phospho-ERK(p44/42 MAPK)^T202/Y204 and ERK; phospho-NF-κB^Ser536 and NK-κB; p65^Ser536; phospho-Smad2^Ser465/467 and Smad2; phospho-IGF-I Receptor β^Tyr1135 and IGF; Phospho-IRS-1^Ser612 and IRS; IR; phpspho-stat3^Tyr705 and stat3; Phospho-AMPKα^Thr172 and Ampkα; phospho-Ampkβ^Ser108 and Ampk; phospho-ACC^Ser79 and ACC; Phospho-PDGF Receptor β^Tyr751 and PDGF Receptor β and snail, c-cadherin and vimentin, TGF-β, β-catenin, twist, LC3B. All antibodies listed above were obtained from Cell Signaling Technology (Beverly, Mass.), and diluted 1:1000 with the exception of phospho-JNK (SAPK/JNK)^Thr183/Tyr185, Phospho-NF-κB p65^Ser536, phospho-Smad2^Ser465/467, phospho-IGF-I Receptor β^Tyr1135, Cleaved caspase-3, Phospho-IRS-1^Ser612. Other antibodies used were: αSMA and phospho-Insulin Receptor^Y972 (1:1000 and 1:500, Abcam, Mass.); col-1 (1:1000); MMP-9 and MMP-2 (1:500 and 1:200, EMD Millipore-Billerica, Mass.), AT1 (1:1000, LifeSpan BioSciences Inc, WA), ZEB1 (1:1000, Novus Biologicals, CO), and β-actin (1:5000, Sigma, Mo.). Quantification of protein expression relative to total receptor or β-actin was obtained using Image J software.

[2] = test system: human PSC viability; test: MTT viability assay on PSCs; format: cell-based

CN(C)C(=N)N=C(N)N [metformin, 3-(diaminomethylidene)-1,1-dimethylguanidine]
protein levels of MMP9 in PSCs ([1]; metformin 0, 0.1, 1 and 10 mM, Western blot): decreased protein levels of MMP9
expression of HA in PSCs ([1]; metformin 1 mM, 48 h): decreased
expression of collagen-I in PSCs ([1]; metformin 1 mM, 48 h): decreased
expression of AT1, TGF-β and downstream signaling via SMAD-2, PDGF-I3 ([1]; metformin 0.1-1mM, Western blot): reduced expression
canonical signaling pathways ERK, p38 and STAT3 ([1]; relatively higher doses (1-10 mM)): affected canonical signaling pathways
doses at which metformin significantly reduces PSC viability ([2]; 48 h, MTT): > 7.5 mM
viability of PSCs ([2]; metformin 1 mM): does not substantially affect the viability
